Results taken from patent US20150374815A1, “METHODS AND COMPOSITIONS FOR TREATMENT WITH SYNTHETIC NANOCARRIERS AND IMMUNE CHECKPOINT INHIBITORS” (Selecta Biosciences, Inc., priority 2014, published 2015).
“Also recorded” adds a separate entry of the source.

Key:
TNF-α = test: Serum cytokine induction after NC-CpG or free CpG inoculation (ELISA); format: in vivo; details: s.c.; 100 μg NC-CpG (containing 5% CpG-1826) or 5 μg free CpG-1826; pooled sera, 3/group; FIG. 4
Method: (§1) TNF-α and IL-6 were induced in sera of NC-CpG- and free CpG-inoculated animals. Animal groups were inoculated (s.c.) either with 100 μg of NC-CpG (containing 5% CpG-1826) or with 5 μg of free CpG-1826. At different time-points post inoculation serum was collected from the animals (3/group) by terminal bleed, pooled and assayed for cytokine presence in ELISA (BD).

IL-6 = test: as above; format: in vivo; details: s.c.; 100 μg NC-CpG (containing 5% CpG-1826) or 5 μg free CpG-1826; pooled sera, 3/group; FIG. 4
Method: as §1

5′-TCCATGACGTTCCTGACGTT-3′ [free CpG]
induction of TNF-α in serum (TNF-α): induced; also recorded: substantially higher induction | induction of IL-6 in serum (IL-6): induced; also recorded: substantially higher induction
